# Literature values, collected in patent publication US20250107560A1, “CHRONOBIOLOGICAL FOOD FOR INFANTS AND METHOD FOR PRODUCING SAME” (priority 2022, published 2025).
# How the values were obtained:
# [1] = biological target: carrier albumin (Homo sapiens, UniProt P02768); conditions: compared with D-tryptophan
# [2] = unlike D-tryptophan
# Sequence of carrier albumin (P02768 25-609): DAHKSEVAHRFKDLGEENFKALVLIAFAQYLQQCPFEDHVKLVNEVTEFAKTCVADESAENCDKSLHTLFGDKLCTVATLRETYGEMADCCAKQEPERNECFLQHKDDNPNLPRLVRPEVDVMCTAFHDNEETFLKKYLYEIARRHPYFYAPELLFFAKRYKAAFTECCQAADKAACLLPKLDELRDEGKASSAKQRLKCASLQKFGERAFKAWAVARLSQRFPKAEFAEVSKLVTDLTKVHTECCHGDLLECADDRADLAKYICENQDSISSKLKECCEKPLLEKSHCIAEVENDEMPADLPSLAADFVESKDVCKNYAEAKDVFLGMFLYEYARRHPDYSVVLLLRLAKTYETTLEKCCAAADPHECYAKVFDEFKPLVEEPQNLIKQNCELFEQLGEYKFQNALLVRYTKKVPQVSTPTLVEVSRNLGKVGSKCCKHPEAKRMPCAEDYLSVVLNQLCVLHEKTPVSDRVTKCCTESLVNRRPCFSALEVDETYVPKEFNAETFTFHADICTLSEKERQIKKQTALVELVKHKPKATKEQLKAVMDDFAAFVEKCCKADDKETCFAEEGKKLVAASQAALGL
"binding to the carrier albumin, relative to D-tryptophan [1]",biological half-life (in vivo),Structure (SMILES),toxicity [2],excreted in the urine as 6-sulfatoxymelatonin (metabolized in the liver)
100 times,,N[C@@H](Cc1c[nH]c2ccccc12)C(=O)O [L-tryptophan],non-toxic,
,30-45 minutes,"COc1ccc2[nH]cc(CCNC(C)=O)c2c1 [Melatonin, melatonin]",,approx. 95%
